Like-named read-outs stand apart in the source and are kept apart here.
Columns and labels:
[1] = test system: NF-κB nuclear translocation in HUVECs; assay: NF-κB nuclear translocation assay (high content imaging, p65 NUC/CYT); assay type: cell-based, Human; details: for EC50: Homo sapiens, HUVEC; for NF-κB nuclear translocation in response to different inducers vs negative control (1% DMSO): HUVECs stimulated 30 min, 100 ng/mL LPS, 10 μM PMA, 10 μM prostratin, 10 μM calcimycin
Procedure: HUVEC cells were seeded at 2500 cells/well in 384-well plates in EBM^TM-2 Basal Medium plus 2% FBS overnight at 37°C in a humidified 5% CO2 incubator. Compounds (columns 3–22) and DMSO (columns 1, 2, 23 and 24) were added to cells using a JANUS Automated Liquid Handling Workstation (Perkin Elmer). […] Plates were incubated at 37°C for 30 min in a humidified 5% CO2 incubator following addition of compounds and controls.
All washing and immunofluorescence staining steps were performed using an EL406 Automated Washer Dispenser (Biotek). Briefly, cells were fixed with 4% paraformaldehyde at RT for 15 min. Cells were washed and incubated at RT for 30 min in 0.05% Triton X-100, 0.25% IgG-free BSA, 0.25% normal goat serum in Tris-buffered saline. Cells were stained with the p65 Mouse Monoclonal Primary Antibody (Santa Cruz, sc-8008) at a final concentration of 1 μg/mL in TBS, 0.05% Triton X-100,.25% IgG-free BSA and incubated overnight at 4°C. Cells were washed and stained with the Alexa Fluor 488 Goat anti-Mouse IgG (H+L) cross-adsorbed secondary antibody at a final concentration of 4 μg/mL in TBS, 0.05% TritonX-100, 0.25% IgG-free BSA for 1 hr at RT in the dark. Cells were washed and 1 μg/mL of DAPI added. Plates were sealed and imaged with an ImageXpress Micro XLS High Content Screening System (Molecular Devices) using FITC and DAPI channels at 20X magnification. Nine fields were captured for each well.
Images were analyzed using the MetaXpress software (Molecular Devices) by creating a custom analysis program in the Custom Module Editor. Briefly, DAPI was used to identify the nucleus of the cell and a nuclear mask created. A secondary mask was created by enlarging the nucleus mask to identify the whole cell. The whole cell mask was then overlaid on the nucleus mask to identify the cytoplasm. The average p65 (NF-κB) pixel intensities in both the nucleus and cytoplasm were quantified and a value assigned to each. A translocation value was calculated by determining the ratio of the average nuclei intensity to the average cytoplasmic intensity of p65 (NUC/CYT). For assay development, the Kruskal-Wallis non parametric test was used to compare the medians of the different groups after correcting for multiple comparison with Dunn’s multiple comparison test using GraphPad Prism 7.04 software. For assay validation, the mean (μ), standard deviation (SD) and coefficient of variation (CV) for nuclear translocation were calculated for the maximum (TNF-α) and minimum (DMSO) activation control wells, maximum and minimum activation plates as well as CVs for 320 test wells. The Z’ (measure of spread between maximum and minimum control signals) was calculated for each plate using the formula: Z^′=1−3(SDMax+SDMin)/|μMax−μMin|, where max is average maximum signal and min is average minimum signal. The EC50 was defined as the concentration that gave half the maximal response.

HepG2 human cell line = assay: HepG2 cytotoxicity assay (CellTiter-Glo); details: HepG2 IC50 / HUVEC EC50
Procedure: (§1) Cells were seeded in 384-well plates at 1800 cells per well and incubated in a humidified incubator at 37°C, 5% CO2. Compounds were solubilized in 100% DMSO and assayed using a 10-point three-fold serial dilution. Compounds were added 24 hours post cell seeding to a final assay concentration of 1% DMSO and highest compound concentration of 100 μM. CellTiter-Glo® reagent (Promega) was added to 384-well plates after a 72-hour incubation period. Relative luminescent units (RLU) were measured using a Synergy 4 plate reader (Biotek). Raw data were normalized using the average RLU value from negative control (1% DMSO) and expressed as % growth. Growth inhibition curves were fitted using the Levenberg–Marquardt algorithm. The IC50 was defined as the compound concentration that produced 50% of the growth inhibitory response.

[2] = HepG2 cytotoxicity assay (CellTiter-Glo); details: human, HepG2 cells
Procedure: as §1

in vitro = details: human
Procedure: as §1

[3] = 0.5 h, NF-κB nuclear translocation, 10-point 3-fold dose response from 100 μM, 30 min, mean ± SD of three independent experiments (* N = 2), unit inferred, μM, read-out: EC50 = Activity in HUVECs
[4] = HUVECs, representative curve of three experiments, 4-parameter fit, dose response from 100μM, unit inferred, read-out: EC50 (Fig 8 dose response curve)

Compound | EC50 [1, 3] [µM] | selectivity index (SI) = IC50/EC50 (HepG2 human cell line) | IC50 at 72 h [2] [µM] | further results
N#Cc1c(Cl)nc(N2CCOCC2)c(Cl)c1Cl [IDR-0112566] | 3.8 ± 1.4 | 7.4 | 28 ± 0.7 | EC50 [1, 4]: 2.1 µM
CC(=NNc1nc(Cl)c(C#N)c(Cl)c1Cl)c1ccccn1 [IDR-0112703] | 6.3 ± 6 | 2.1 | 13 ± 5 | –
Cc1cc(C)c2c(N)c(C(=O)c3ccc(Br)cc3)sc2n1 [IDR-0112706] | 13 ± 4.5 | 2.1 | 27 ± 3.5 | –
Nc1ccc2c(c1)Cc1cc([N+](=O)[O-])ccc1-2 [IDR-0113345] | 8.6 ± 8.9 | 6.3 | – | IC50 (in vitro): 54 ± 5 µM
COC(=O)C1=C(C)OC(N)=C(C#N)C1c1ccc(Cl)c(Cl)c1 (centres unmarked) [IDR-0122120] | 6.6 ± 8.1 | 6.1 | 40 ± 5 | –
O=c1oc2ccccc2c2nn(Cc3ccccc3)nc12 [IDR-0131600] | 17 ± 3.7 | 1.9 | 32 ± 0.7 | –
O=C1NC(=S)SC1=Cc1ccc(O)cc1O [IDR-0133275] | 18 ± 1.1 | >5.5 | > 100 | –
Cc1cc(OCCCNCCO)cc(C)c1Cl [IDR-0137368] | 17 ± 14 | 1.1 | 19 ± 4.9 | –
CCCCNCCCCOc1ccc2ccccc2c1 [IDR-0137875] | 15 ± 3 | 1.1 | 16 ± 0.71 | –
Oc1ccccc1/N=C/c1c(O)c(Br)cc2oc3c(c12)CCCC3 [IDR-0139144] | 12 ± 10 | 1.5 | 18 ± 4.2 | –
O=[N+]([O-])c1ccc(-c2nc(Cl)oc2-c2ccc([N+](=O)[O-])cc2)cc1 [IDR-0515158] | – | 33 | 86 ± 17 | EC50 ([1]; 0.5 h, read-out: EC50 = Activity in HUVECs): 2.6 ± 0.53 µM; EC50 ([1]; read-out: EC50 (Fig 8 dose response curve)): 2.2 µM
Cc1nn(-c2ccccc2)c2c1C(c1ccc(Cl)c(Cl)c1)C(C#N)=C(N)O2 (centres unmarked) [IDR-0516961] | 25 ± 17 | 1.8 | 46 ± 18 | –
CCOC(=O)C(Cc1ccccc1)NC(=O)c1ccccc1 (centres unmarked) [IDR-0517069] | 10 ± 1.6 | >10 | > 100 | EC50 [1, 4]: 8.1 µM
O=C1C(=Cc2ccc(-c3ccc(Cl)cc3)o2)SC(=S)N1Cc1ccco1 [IDR-0518296] | 2.4 ± 1.4 | 7.1 | 17 ± 12 | –
O=C(/C=C1\C=CS(=O)(=O)C1)c1ccccc1 [IDR-0520796] | 5 ± 5.6 | 1.3 | 6.6 ± 1.6 | –
CN(C)c1ccc(/C=C2\SC(=S)N(N)C2=O)cc1 [IDR-0605186] | 15 ± 5.9 | >3.3 | > 50 | –
CCOc1cc(C=C(C#N)c2nc(-c3ccc(OC)cc3)cs2)ccc1O [IDR-0605187] | 5.9 ± 3.4 | 8.6 | 51 ± 31 | EC50 [1, 4]: 3.1 µM
COc1ccc(Br)cc1/C=C(\C#N)c1nc2ccc(C)cc2[nH]1 [IDR-0605188] | 4.7 ± 3.8 | 3.6 | 17 ± 13 | –
CCCCCCCCCCCCCC(=O)O[C@@H]1[C@@H](C)[C@@]2(O)[C@@H](C=C(CO)C[C@]3(O)C(=O)C(C)=C[C@@H]23)[C@@H]2C(C)(C)[C@]12OC(C)=O [PMA, phorbol myristate acetate, reference compound] | – | – | – | NF-κB nuclear translocation in response to different inducers vs negative control (1% DMSO) ([1]; 10 ng/mL TNF-α): no difference
CNc1ccc2oc(C[C@H]3O[C@@]4(CC[C@H]3C)O[C@H]([C@H](C)C(=O)c3ccc[nH]3)[C@H](C)C[C@H]4C)nc2c1C(=O)O [calcimycin, reference compound] | – | – | – | NF-κB nuclear translocation in response to different inducers vs negative control (1% DMSO) ([1]; 10 ng/mL TNF-α): no difference
CC(=O)O[C@@]12C[C@@H](C)[C@@]3(O)[C@@H](C=C(CO)C[C@]4(O)C(=O)C(C)=C[C@@H]34)[C@@H]1C2(C)C [prostratin, reference compound] | – | – | – | NF-κB nuclear translocation in response to different inducers vs negative control (1% DMSO) ([1]; 10 ng/mL TNF-α): no difference
TNF-α | – | – | – | NF-κB nuclear translocation in response to different inducers vs negative control (1% DMSO) ([1]; 10 ng/mL TNF-α): most robust NF-κB nuclear translocation; time of maximum NF-κB activation post stimulation ([1]; HUVECs, 10 ng/mL TNF-α, fixed at 15, 30, 45 and 60 min): 30 min; EC50 of NF-κB nuclear translocation ([1]; HUVECs, 10-point 3-fold dilutions from 100 ng/mL, 30 min, across three independent experiments): 0.3 to 0.6 ng/mL
lipopolysaccharide [LPS, reference compound] | – | – | – | NF-κB nuclear translocation in response to different inducers vs negative control (1% DMSO) ([1]; 10 ng/mL TNF-α): no difference

From publication PMC6023200, “High content, high-throughput screening for small molecule inducers of NF-κB translocation” (PLoS ONE, 2018)
